Columns and labels:
Assay type in all cases: in vivo
[1] = tested on: Ryegrass, Italian (Italian ryegrass, Lolium multiflorum); test: Test A preemergence, Ryegrass, Italian; settings: Preemergence; for Ryegrass, Italian plant response rating: visual injury on 0 to 100 scale (0 no effect, 100 complete control), approximately 10 days; for Plant response rating, Ryegrass, Italian: 0 to 100 scale (0 no effect, 100 complete control)
How it was run: (§1)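 Postemergence ratings come from foliar sprays onto one- to two-leaf plants of 2 to 10 cm grown in loam/sand; preemergence ratings come from a directed spray onto the soil of newly seeded pots. Formulation was a surfactant-containing non-phytotoxic solvent blend.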

[2] = tested on: ragweed (common ragweed, Ambrosia artemisiifolia); test: Test A postemergence, ragweed; settings: Postemergence; for Ragweed plant response rating: 500 g ai/ha, visual injury vs untreated controls after approx. 10 days
How it was run: as §1

[3] = tested on: pigweed (Amaranthus retroflexus); test: Test A preemergence, pigweed; settings: for Pigweed plant response rating: visual injury on 0 to 100 scale (0 no effect, 100 complete control), approximately 10 days; for Plant response rating, Pigweed: 0 to 100 scale (0 no effect, 100 complete control)
How it was run: (§2)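 After sowing into a sand-amended loam, pots for the preemergence test were treated by spraying directly onto soil. In parallel, seedlings at the one- to two-leaf stage and 2 to 10 cm tall were treated postemergence with the identical surfactant-containing formulation.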

[4] = tested on: corn (Zea mays); test: Test A postemergence, corn; settings: Postemergence; for Corn plant response rating: 500 g ai/ha, visual injury vs untreated controls after approx. 10 days
How it was run: as §1

[5] = tested on: ragweed (common ragweed, Ambrosia artemisiifolia); test: Test A preemergence, ragweed; settings: Preemergence; for Ragweed plant response rating: visual injury on 0 to 100 scale (0 no effect, 100 complete control), approximately 10 days; for Plant response rating, Ragweed: 0 to 100 scale (0 no effect, 100 complete control)
How it was run: as §1

[6] = tested on: wheat (Triticum aestivum); test: Test A postemergence, wheat; settings: Postemergence; for Wheat plant response rating: 500 g ai/ha, visual injury vs untreated controls after approx. 10 days
How it was run: as §2

[7] = tested on: pigweed (Amaranthus retroflexus); test: Test A postemergence, pigweed; settings: Postemergence; for Pigweed plant response rating: 500 g ai/ha, visual injury vs untreated controls after approx. 10 days
How it was run: as §1

[8] = tested on: galium (catchweed bedstraw, Galium aparine); test: Test A postemergence, galium; settings: Postemergence; for Galium plant response rating: 500 g ai/ha, visual injury vs untreated controls after approx. 10 days
How it was run: as §2

[9] = tested on: Foxtail, Giant (giant foxtail, Setaria faberi); test: Test A postemergence, Foxtail, Giant; settings: Postemergence; for Foxtail, Giant plant response rating: 500 g ai/ha, visual injury vs untreated controls after approx. 10 days
How it was run: as §1

[10] = tested on: kochia (Bassia scoparia); test: Test A preemergence, kochia; settings: Preemergence; for Kochia plant response rating: visual injury on 0 to 100 scale (0 no effect, 100 complete control), approximately 10 days; for Plant response rating, Kochia: 0 to 100 scale (0 no effect, 100 complete control)
How it was run: as §1

[11] = tested on: kochia (Bassia scoparia); test: Test A postemergence, kochia; settings: Postemergence; for Kochia plant response rating: 500 g ai/ha, visual injury vs untreated controls after approx. 10 days
How it was run: as §1

[12] = tested on: barnyardgrass (Echinochloa crus-galli); test: Test A postemergence, barnyardgrass; settings: Postemergence; for Barnyardgrass plant response rating: 500 g ai/ha, visual injury vs untreated controls after approx. 10 days
How it was run: as §2

[13] = tested on: barnyardgrass (Echinochloa crus-galli); test: Test A preemergence, barnyardgrass; settings: Preemergence; for Barnyardgrass plant response rating: visual injury on 0 to 100 scale (0 no effect, 100 complete control), approximately 10 days; for Plant response rating, Barnyardgrass: 0 to 100 scale (0 no effect, 100 complete control)
How it was run: as §1

[14] = tested on: Foxtail, Giant (giant foxtail, Setaria faberi); test: Test A preemergence, Foxtail, Giant; settings: Preemergence; for Foxtail, Giant plant response rating: visual injury on 0 to 100 scale (0 no effect, 100 complete control), approximately 10 days; for Plant response rating, Foxtail, Giant: 0 to 100 scale (0 no effect, 100 complete control)
How it was run: as §1

[15] = tested on: blackgrass (Alopecurus myosuroides); test: Test A postemergence, blackgrass; settings: Postemergence; for Blackgrass plant response rating: 500 g ai/ha, visual injury vs untreated controls after approx. 10 days
How it was run: as §1

[16] = tested on: Ryegrass, Italian (Italian ryegrass, Lolium multiflorum); test: Test A postemergence, Ryegrass, Italian; settings: Postemergence; for Ryegrass, Italian plant response rating: 500 g ai/ha, visual injury vs untreated controls after approx. 10 days
How it was run: as §1

[17] = 125 g ai/ha, visual injury approx. 10 days, 0 to 100 scale (0 no effect, 100 complete control)
[18] = 0 to 100 scale (0 no effect, 100 complete control)
[19] = 31 g ai/ha, visual injury, approx. 10 days
[20] = 31 g ai/ha, visual injury on 0 to 100 scale (0 no effect, 100 complete control), approx. 10 days
[21] = 125 g ai/ha, 0 to 100 scale (0 no effect, 100 complete control)
[22] = 125 g ai/ha, visual injury, approx. 10 days

## COCC1(COC)CC(c2cc(NS(=O)(=O)C(F)(F)F)c(C)cc2C)=NO1 [Compound 104]
[1]; 125 g ai/ha
  Ryegrass, Italian plant response rating: 50
[1]; 500 g ai/ha
  Plant response rating, Ryegrass, Italian: 100
[2]; [17]
  Plant response rating, Ragweed: 70
[2]; [18]
  Ragweed plant response rating: 90
[3]; 125 g ai/ha
  Pigweed plant response rating: 70
[3]; 500 g ai/ha
  Plant response rating, Pigweed: 90
[4]; [17]
  Plant response rating, Corn: 30
[4]; [18]
  Corn plant response rating: 80
[5]; 125 g ai/ha
  Ragweed plant response rating: 30
[5]; 500 g ai/ha
  Plant response rating, Ragweed: 60
[6]; [17]
  Plant response rating, Wheat: 20
[6]; [18]
  Wheat plant response rating: 60
[7]; [17]
  Plant response rating, Pigweed: 40
[7]; [18]
  Pigweed plant response rating: 80
[8]; [17]
  Plant response rating, Galium: 90
[8]; [18]
  Galium plant response rating: 90
[9]; [17]
  Plant response rating, Foxtail, Giant: 20
[9]; [18]
  Foxtail, Giant plant response rating: 70
[10]; 125 g ai/ha
  Kochia plant response rating: 0
[10]; 500 g ai/ha
  Plant response rating, Kochia: 50
[11]; [17]
  Plant response rating, Kochia: 30
[11]; [18]
  Kochia plant response rating: 40
[12]; [17]
  Plant response rating, Barnyardgrass: 80
[12]; [18]
  Barnyardgrass plant response rating: 90
[13]; 125 g ai/ha
  Barnyardgrass plant response rating: 90
[13]; 500 g ai/ha
  Plant response rating, Barnyardgrass: 100
[14]; 125 g ai/ha
  Foxtail, Giant plant response rating: 90
[14]; 500 g ai/ha
  Plant response rating, Foxtail, Giant: 100
[15]; [17]
  Plant response rating, Blackgrass: 0
[15]; [18]
  Blackgrass plant response rating: 20
[16]; [17]
  Plant response rating, Ryegrass, Italian: 10
[16]; [18]
  Ryegrass, Italian plant response rating: 40

## Cc1cc(Cl)c(NS(=O)(=O)C(F)(F)F)cc1C(=O)N1CCOCC1(C)C [Compound 153]
[1]; [19]
  Plant response rating, Ryegrass, Italian: 30
[1]; 125 g ai/ha
  Ryegrass, Italian plant response rating: 70
[2]; [20]
  Plant response rating, Ragweed: 30
[2]; [21]
  Plant response rating, Ragweed: 70
[3]; [19]
  Plant response rating, Pigweed: 80
[3]; 125 g ai/ha
  Pigweed plant response rating: 90
[4]; [20]
  Plant response rating, Corn: 0
[4]; [21]
  Plant response rating, Corn: 20
[5]; [19]
  Plant response rating, Ragweed: 40
[5]; 125 g ai/ha
  Ragweed plant response rating: 60
[6]; [20]
  Plant response rating, Wheat: 0
[6]; [21]
  Plant response rating, Wheat: 30
[7]; [20]
  Plant response rating, Pigweed: 0
[7]; [21]
  Plant response rating, Pigweed: 30
[8]; [20]
  Plant response rating, Galium: 60
[8]; [21]
  Plant response rating, Galium: 70
[9]; [20]
  Plant response rating, Foxtail, Giant: 10
[9]; [21]
  Plant response rating, Foxtail, Giant: 20
[10]; [19]
  Plant response rating, Kochia: 60
[10]; 125 g ai/ha
  Kochia plant response rating: 80
[11]; [20]
  Plant response rating, Kochia: 0
[11]; [21]
  Plant response rating, Kochia: 10
[12]; [20]
  Plant response rating, Barnyardgrass: 10
[12]; [21]
  Plant response rating, Barnyardgrass: 50
[13]; [19]
  Plant response rating, Barnyardgrass: 0
[13]; 125 g ai/ha
  Barnyardgrass plant response rating: 70
[14]; [19]
  Plant response rating, Foxtail, Giant: 40
[14]; 125 g ai/ha
  Foxtail, Giant plant response rating: 90
[15]; [20]
  Plant response rating, Blackgrass: 0
[15]; [21]
  Plant response rating, Blackgrass: 50
[16]; [20]
  Plant response rating, Ryegrass, Italian: 30
[16]; [21]
  Plant response rating, Ryegrass, Italian: 80

## COc1cnn(-c2cc(NS(=O)(=O)C(F)(F)F)c(C)cc2C)c(=O)c1 [Compound 54]
[1]; 125 g ai/ha
  Ryegrass, Italian plant response rating: 0
[1]; 500 g ai/ha
  Plant response rating, Ryegrass, Italian: 20
[2]; [17]
  Plant response rating, Ragweed: 80
[2]; [18]
  Ragweed plant response rating: 90
[3]; 125 g ai/ha
  Pigweed plant response rating: 40
[3]; 500 g ai/ha
  Plant response rating, Pigweed: 90
[4]; [17]
  Plant response rating, Corn: 0
[4]; [18]
  Corn plant response rating: 10
[5]; 125 g ai/ha
  Ragweed plant response rating: 50
[5]; 500 g ai/ha
  Plant response rating, Ragweed: 90
[6]; [17]
  Plant response rating, Wheat: 0
[6]; [18]
  Wheat plant response rating: 0
[7]; [17]
  Plant response rating, Pigweed: 40
[7]; [18]
  Pigweed plant response rating: 70
[8]; [17]
  Plant response rating, Galium: 60
[8]; [18]
  Galium plant response rating: 90
[9]; [17]
  Plant response rating, Foxtail, Giant: 0
[9]; [18]
  Foxtail, Giant plant response rating: 0
[10]; 125 g ai/ha
  Kochia plant response rating: 60
[10]; 500 g ai/ha
  Plant response rating, Kochia: 90
[11]; [17]
  Plant response rating, Kochia: 60
[11]; [18]
  Kochia plant response rating: 80
[12]; [17]
  Plant response rating, Barnyardgrass: 0
[12]; [18]
  Barnyardgrass plant response rating: 10
[13]; 125 g ai/ha
  Barnyardgrass plant response rating: 0
[13]; 500 g ai/ha
  Plant response rating, Barnyardgrass: 0
[14]; 125 g ai/ha
  Foxtail, Giant plant response rating: 0
[14]; 500 g ai/ha
  Plant response rating, Foxtail, Giant: 10
[15]; [17]
  Plant response rating, Blackgrass: 0
[15]; [18]
  Blackgrass plant response rating: 0
[16]; [17]
  Plant response rating, Ryegrass, Italian: 40
[16]; [18]
  Ryegrass, Italian plant response rating: 40

## CCN(CC)C(=O)c1cc(NS(=O)(=O)C(F)(F)F)c(C)cc1C [Compound 188]
[1]; [22]
  Plant response rating, Ryegrass, Italian: 50
[1]; 500 g ai/ha
  Plant response rating, Ryegrass, Italian: 100
[2]; [21]
  Plant response rating, Ragweed: 20
[2]; [18]
  Ragweed plant response rating: 70
[3]; [22]
  Plant response rating, Pigweed: 50
[3]; 500 g ai/ha
  Plant response rating, Pigweed: 90
[4]; [21]
  Plant response rating, Corn: 10
[4]; [18]
  Corn plant response rating: 30
[5]; [22]
  Plant response rating, Ragweed: 40
[5]; 500 g ai/ha
  Plant response rating, Ragweed: 50
[6]; [21]
  Plant response rating, Wheat: 40
[6]; [18]
  Wheat plant response rating: 70
[7]; [21]
  Plant response rating, Pigweed: 20
[7]; [18]
  Pigweed plant response rating: 80
[8]; [21]
  Plant response rating, Galium: 40
[8]; [18]
  Galium plant response rating: 50
[9]; [21]
  Plant response rating, Foxtail, Giant: 0
[9]; [18]
  Foxtail, Giant plant response rating: 20
[10]; [22]
  Plant response rating, Kochia: 20
[10]; 500 g ai/ha
  Plant response rating, Kochia: 60
[11]; [21]
  Plant response rating, Kochia: 0
[11]; [18]
  Kochia plant response rating: 0
[12]; [21]
  Plant response rating, Barnyardgrass: 10
[12]; [18]
  Barnyardgrass plant response rating: 70
[13]; [22]
  Plant response rating, Barnyardgrass: 60
[13]; 500 g ai/ha
  Plant response rating, Barnyardgrass: 90
[14]; [22]
  Plant response rating, Foxtail, Giant: 0
[14]; 500 g ai/ha
  Plant response rating, Foxtail, Giant: 100
[15]; [21]
  Plant response rating, Blackgrass: 0
[15]; [18]
  Blackgrass plant response rating: 0
[16]; [21]
  Plant response rating, Ryegrass, Italian: 0
[16]; [18]
  Ryegrass, Italian plant response rating: 40

Reference: patent US20230278972A1, “SUBSTITUTED HALOALKYL SULFONANILIDE HERBICIDES” (FMC Corporation, priority 2020, published 2023)
